Source: publication PMC5460189, “Melon13-lipoxygenase CmLOX18 may be involved in C6 volatiles biosynthesis in fruit” (Scientific Reports, 2017)

System: T1, CmLOX18
T1 construct: ORF in pYES2.1 TOPO-TA, His-tagged (anti-His), expressed in Saccharomyces cerevisiae INVSc1, purified
Assay: increase in A234, Michaelis-Menten plot
Type: biochemical, Cucumis melo
Settings: substrate 15-350 μM, pH and temperature of the kinetic runs not stated (optimum pH 4.5, 30 °C)

Km (linolenic acid isomer not given, alpha assumed) [µM]	Km [µM]	Compound
40.7 ± 2.65		CC/C=C\C/C=C\C/C=C\CCCCCCCC(=O)O [Linolenic acid]
	127 ± 18.6	CCCCC/C=C\C/C=C\CCCCCCCC(=O)O [Linoleic acid]
